Data: US20070224645A1, “Novel cell-based phosphodiesterase assays” (priority 2006, published 2007)
Entries after “also recorded” stand apart in the source; their conditions may differ.

Test system: PDE IV
Test: Cell-based PDE assay in ACTOne-IRES-A2b#2 cell line with ACTOne Membrane Potential dye, no external cAMP stimulation
Settings: ACTOne-IRES-A2b#2 cell line (HEK293-CNG overexpressing human adenosine A2b receptor); readings before and 30 minutes after compound addition
Procedure: Before the assay, all cells are harvested when they reach 80-90% confluence or less, and they should not be overgrown. Culture medium of the transfected cells was removed and replaced with a volume of Dulbecco's Phosphate Buffers Saline without calcium and magnesium (DPBS) to adequately cover and wash the cells. The DPBS was removed and a sufficient volume of 1× trypsin-EDTA was added to just cover the cells (i.e. 1 ml for a 10 cm dish, 2 ml for a T75 flask, and 5 ml for a T150 flask). The plate was agitated to make sure the cells were equally covered with the solution. The cells were trypsinized at room temperature for about 5 min. After 5 min, the cells were examined to ensure that they were detached from the dish or flask. Gentle tapping of the dish/flask may aid in the process. Sufficient serum-containing medium were added to an appropriate volume and the medium was pipetted up and down through a serological pipette for 4 times to obtain a single cell suspension. A portion of the cells were counted with a hemocytometer. Cells are diluted in their appropriate medium at 7×10^5 cells/ml. 100 μl/well of cell suspension is added to 96-well plates or 20 μl/well is added to 384-well plates 16-24 hours before use. For cells with HEK293 background, poly-D-lysine-coated plates are recommended. Optimal assay conditions using standard fluorescence plate readers require a confluent monolayer of cells prior to the assay. The number of cells used per well will depend upon a number of conditions including the cell line and the instrument being used to make the reading. Cell plates are removed from the incubator after overnight incubation and examined under microscope. A confluent lawn of consistently spread cells is observed. An equal volume of IX Membrane Potential Dye Solution (BD Biosciences, Rockville, Md.) is then added to each well (e.g. 100 μl to 100 μl culture medium/well for 96-well plates, or 20 μl to 20 μl culture medium/well for 384-well plates). […] The cell plates are further incubated for 2 hrs at room temperature in the dark. Membrane potential assays are performed as described in the manual for ACTOne Membrane Potential Dye Kit (BD Biosciences, Rockville, Md.). Test compounds can be added on-line (some fluorescence plate readers also have fluid addition module, and therefore compound addition and fluorescence intensity reading can happen simultaneously. i.e. FLIPR and FlexStation) or off-line (other liquid handling equipments are used for compound addition). Test compounds in 1×DPBS was added to the cell plates at 50 μl/well for 96-well plates (250 μl total well volume after addition) or 10 μl/well for 384-well plates (50 μl total well volume after addition). Cell plates are loaded into a FLIPR, FLEXstation, or other fluorescence microplate reader to read fluorescence intensity before and after compound addition. The settings on FLIPR are described in the manuals from the manufacturer. For FLEXstation and other fluorescence microplate readers, wavelengths close to the maxima of absorption and emission of the dye are used: for example, 530 nm excitation, 550 auto cut-off, and 565 nm emission. […] Fluorescence intensity counts obtained before and 30 minutes after compound addition were used for data analysis. […] It has been reported that PDE4 is a dominant isozyme in HEK293 cells. In order to analyze the specificity of the PDE assay, different PDE inhibitors (Ro20-1724, Rolipram, Etazolate (PDE IV inhibitors); 8-methoxymethyl-3-isobuty-1-m (PDE I inhibitor); Zaprinast (cGMP specific PDE inhibitor); Quazinon (PDE III inhibitor); IBMX (pan PDE inhibitor)) were purchased from Sigma. They were diluted at different concentrations in 1×DPBS and the assays were performed the same as above using the ACTOne-IRES-A2b#2 cell line. Briefly, the cells were plated on 384-well PDL coated plate. The density of the cells was 14,000 cells per well. The cells were allowed to attach and grow overnight. […]

Row | Structure (SMILES) | detection of PDE inhibitor activity (dose response, fluorescence intensity)
1 | CC(C)Cn1c(=O)n(C)c(=O)c2[nH]cnc21 [IBMX, 3-Isobutyl-1-methylxanthine] | can not be detected; also recorded: negative signals
2 | CCOC(=O)c1cnc2c(cnn2CC)c1NN=C(C)C.Cl [Etazolate, 1-ethyl-4-[(1-methylethylidene)hydrazino]1H-pyrazol-o[3,4-b]pyridine-5-carboxylic acid ethyl ester hydrochloride] | detected
3 | COc1ccc(C2CNC(=O)C2)cc1OC1CCCC1 (stereo not shown) [Rolipram, 4-[3-(cyclopentyloxy)-4-methoxyphenyl]-2-pyrrolidinone] | detected
4 | C[C@@H]1C(=O)NC2=Nc3cccc(Cl)c3CN21 [Quazinon] | negative signals
5 | COCc1nc2c([nH]1)c(=O)n(C)c(=O)n2CC(C)C [8-methoxymethyl-3-isobuty-1-m, 8-Methoxymethyl-3-isobutyl-1-methylxanthine] | negative signals
6 | CCCCOc1cc(CC2CNC(=O)N2)ccc1OC (stereo not shown) [Ro20-1724] | detected
7 | CCCOc1ccccc1-c1nc2nn[nH]c2c(=O)[nH]1 [Zaprinast] | negative signals
